Format in all cases: cell-based, human
Assay [1] relates to WBP2. Nature of the assay: Subcellular fractionation of T47D, nuclear WBP2 upon estrogen stimulation. The following applies: 10 nM E2 0-24 hr, 1 hr pretreatment with 10 μM Iressa. Here is the method:
(§1) A: Hormone-stripped MCF7 or T47D were co-transfected with vector, WBP2-WT or WBP2-Y192-231F mutant and ERE/PRE-Luciferase reporter constructs. Cells were either left alone or stimulated with (a) 50 ng/ml EGF for 5 min, (b) 10 nM E2/100 nM P4 for 24 hr, (c) E2/P4 and EGF in the absence or presence of 1 hr pretreatment with 100 μM Iressa(Ir). ERα/PR-transactivated luciferase activities in various conditions were then assayed. **P<0.01, ***P<0.001, Student's t-test (2-tailed). B: T47D were hormone-stripped and stimulated with 10 nM E2 for the indicated time (0-24 hr) in the absence and presence of 1 hr pretreatment with 10 μM Iressa(k). C: WT-WBP2 or Y192-231F mutant-transfected T47D were hormone stripped followed by 24 hr stimulation with 10 nM E2. For both experiments B and C, cells were then harvested for subcellular fractionation into nuclear and cytoplasmic fractions, which were used for IB/IP analysis with antibodies indicated. Histone 2A and GADPH were used as nuclear and cytoplasmic marker respectively. […] ERE (Top panel)/PR (Bottom panel)-transactivated luciferase activities in various conditions were then assayed analyzed in relative to vehicle-treated vector control. **P<0.01, ***P<0.001, Student's t-test (2-tailed). […] ERα-transactivated luciferase activities in various conditions were then assayed analyzed in relative to vehicle-treated vector control. […]

The test system of another assay is PR. Nature of the assay: PRE-Luciferase reporter assay in T47D. The note with it: 100 nM P4 24 hr, 1 hr pretreatment with Iressa. Here is the method: as §1
(Reporter assays use an easily measured gene product as a stand-in for the process of interest.)

The test system of the next assay is ERα. Nature of the assay: ERE-Luciferase reporter assay in MCF7. The following applies: MCF7; 10 nM E2 24 hr; 1 hr pretreatment with Iressa. The protocol: as §1
Assay [2] has as its system WBP2. Nature of the assay: Estrogen/progesterone-induced WBP2 tyrosine phosphorylation in MCF7 (IP/IB). The note with it: 10 nM E2 or 100 nM P4 for 24 hr, 10 μM Iressa pre-treatment for 1 hr.
Procedure: A: Serum-starved cells were stimulated with 50 ng/ml EGF (E) for 5 min or hormone-stripped cells were stimulated with 10 nM Estrogen (E2) or 100 nM Progesterone (P4) for 24 hr with/without 10 μM Iressa (Ir) pre-treatment for 1 hr. Whole cell lysates were used for IP/IB analysis with antibodies indicated. […] D: Serum-starved MCF7 were stimulated with 50 ng/ml EGF (E) for 5 min or hormone-stripped cells were stimulated with 10 nM estrogen (E2) or 100 nM progesterone (P4) for 24 hr with/without 10 μM Iressa (Ir) pre-treatment for 1 hr. Whole cell lysates were used for IP/IB analysis with antibodies indicated. […] 24 hr post-transfection, serum-starved MCF7 were stimulated with 50 ng/ml EGF (E) for 5 min or hormone-stripped cells were stimulated with 10 nM Estrogen (E2) or 100 nM Progesterone (P4) for 24 hr. Whole cell lysates were used for IP/IB analysis with antibodies indicated. “O” denotes “untreated/vehicle-treated”
For all experiments involving estrogen/progesterone (Sigma), MCF7 and T47D were cultured in Phenol-Red Free RPMI1640 (Sigma) containing 5% Charcoal-dextran Stripped FBS (Hyclone) for at least 2 days before stimulation. […] Fresh hormone/drug was replenished every day for treatment that last for more than 1 day.
MCF7, MDA-MB231, T47D, HeLa and MCF10A were from American Type Culture Collection. […]

1 molecule from US9429582B2, “Tyrosine-phosphorylated WBP2, a novel cancer target and biomarker” (National University of Singapore, priority 2010, dated 2016) can be followed below.

SMILES strings stand for the structures.

For `COc1cc2ncnc(Nc3ccc(F)c(Cl)c3)c2cc1OCCCN1CCOCC1` [Iressa], the “nuclear WBP2 upon estrogen stimulation” value in the assay with WBP2 [1] is listed as “reduced”. Moreover, the “progesterone-induced coactivator activity of WBP2 (PR reporter)” value in the assay on PR is “abolished”. In addition, the “estrogen-induced coactivator activity of WBP2 (ERα reporter)” value with ERα was “abolished”. Besides, the “estrogen/progesterone-induced WBP2 phosphorylation” value in the assay with WBP2 [2] is on record as “Significant abolishment”.
